We go through 7 compounds from patent publication US7067248B2 (priority 2002, dated 2006).

Assay [1] relates to VV. The format is cell-based, vaccinia virus.
Another assay concerns orthopoxvirus. The note with it: cited from earlier work.
For assay [2], the system named is VV. The settings on record: cited from earlier work.

Take `c1cnc2c(c1)ccc1ncccc12` [1,7-phenanthroline]: the VV replication entry with VV [1] is “no effect”.
As for `c1cnc2c(c1)ccc1cccnc12` [1,10-phenanthroline], in the assay on VV [1], the “Inhibition of VV replication (FIG. 12)” value was “potent inhibitors of VV replication” and the VV replication result is “completely blocked”.
For the compound `Nc1ccn(C[C@@H](CO)OCP(=O)(O)O)c(=O)n1` [Cidofovir], the Anti-orthopoxvirus activity result in the assay with orthopoxvirus was “potent anti-orthopoxvirus inhibitor”.
Consider `NC(=O)CI` [iodoacetamide], for which, in the assay on VV [1], the “Inhibition of VV replication (FIG. 12)” value is recorded as “potent inhibitors of VV replication” and the VV replication entry is “completely blocked”.
As to `CN1C(=O)/C(=N\NC(N)=S)c2ccccc21` [methisazone, N-methylisatin β-thiosemicarbazone], in the assay on orthopoxvirus, the Anti-orthopoxvirus activity result was “effective at inhibiting orthopoxvirus infections in cultured cells”.
For the compound pepstatin A, the VV replication result in the assay on VV [1] is reported as “no effect”.
α-amanitin: the “Phenotype of VV replication” value in the assay on VV [2] was “abortive-late phenotype”.
